US11357873B2, “Chiral cyclen compounds and their uses” (THE HONG KONG POLYTECHNIC UNIVERSITY, priority 2016, dated 2022)

Assays:
Assay type in all cases: physicochemical
[1] = Absorption and photoluminescence (quantum yield, lifetime, q); parameters: λabs(max): unit not given here; settings: for R, I(5D0 → 7F2)/I(5D0 → 7F1): asymmetry ratio, 10 in MeOH; for R, I(5D0 → 7F2)/I(5D0 → 7F1) / λabs(max): room temperature, 11 in DMSO; for q (Parker's) / q (Horrocks'): from lifetimes in H2O and D2O; for q (Parker's): first value of cell; for q (Horrocks'): second value of cell; for ΦEuEu (%): intrinsic quantum yield, calculated value; for τD2O/MeOD / τH2O/MeOH: luminescence lifetime, 5D0 → 7F2 transition; for τD2O/MeOD: D2O (MeOD for 10); for τH2O/MeOH: H2O (MeOH for 10); for ΦDMSO (%): luminescence quantum yield in DMSO; for ΦH2O/MeOH (%): luminescence quantum yield relative to quinine sulfate in 0.1M H2SO4, H2O (MeOH for 10, insoluble in H2O); for ΦHEPES (%): luminescence quantum yield, 0.1M HEPES buffer, pH 7.4; for λabs(max): 10 measured in MeOH; for ηsens (%): sensitization efficiency, calculated according to ref 61
Protocol: (§1) Absorption spectra of complexes were measured with HP UV-8453 spectrophotometer. Steady-state room temperature photoluminescence measurements were performed with an Edinburgh Instrument FLSP920 spectrophotometer equipped with a Xe900 continuous xenon lamp, μF920 microsecond flash lamp and a single photon counting photomultiplier tube. Spectra were corrected with the bundled F900 software. Solution-state measurements were conducted using quartz curettes of 10 mm path length. CPL measurements were conducted on a custom built spectrometer^63 (in Durham University) consisting of a laser driven light source (Energetiq EQ-99 LDLS, spectral range 170 to 2100 nm) coupled to an Acton SP2150 monochromator (600 g/nm, 300 nm Blaze) that allows excitation wavelengths to be selected with a 6 nm FWHM band-pass. The collection of the emitted light was facilitated (90° angle set up, 1 cm path length quartz curette) by a Lock-In Amplifier (Hinds Instruments Signaloc 2100) and Photoelastic Modulator (Hinds Instruments PEM-90). The differentiated light was focused onto an Acton SP2150 monochromator (1200 g/nm, 500 nm Blaze) equipped with a high sensitivity cooled Photo Multiplier Tube (H10723-20 Extended red-multialkali PMT based photosensor (5V)). Spectra were recorded using a 5 spectral average sequence in the range of 570-720 nm with 0.5 nm spectral intervals and 500 μs integration time. The recorded CPL spectrum underwent a 25% Fourier transformation smoothening protocol using Origin 8.0 Software (Origin Labs) to enhance appearance (all calculations were carried out using raw spectral data).
The shift in absorption is caused by electronic communication between the electropositive lanthanide center and the chromophore. […] These are not observed for 11, however, as we believe the steric effect of the planar phenyl ring of the benzyl group could not be alleviated by appropriate rotation, whereas that of the isobutyl group could.
The luminescence quantum yields of the complexes are decent in water and HEPES solution, although they are much higher in DMSO, due to the nonradiative quenching by O—H oscillators of water molecules in the second coordination sphere (Table 6). The intrinsic quantum yields^61—a calculated value evaluating the quantum yield of Eu(III) via direct metal excitation—of the complexes are calculated, and, as expected, the values are very similar, except for 10. The higher value corroborates with the shift in absorption maximum, for which we believe the reason is due to a shorter europium—chromophore distance and better interaction. On the other hand, the sensitization efficiencies of the complexes vary. […] The relatively remarkable ηsens of 13 is attributed to its structural rigidity, as both the tetraaza backbone and the acetate arms are modified with a chrial substituent, i.e., double chirality. The double chirality is also attributed for the increase in luminescence quantum yield compared to that of 12a/12b.

[2] = Circularly polarized luminescence (CPL), dissymmetry factor glum; settings: for glum ΔJ = 1 (λ) DMSO / glum ΔJ = 3 (λ) DMSO / glum ΔJ = 1 (λ) H2O / glum ΔJ = 3 (λ) H2O: wavelength in parentheses in the cell
Protocol: as §1, with “Steady-state” for “Absorption spectra of complexes were measured with HP UV-8453 spectrophotometer. Steady-state”, “time.” for “time. The recorded CPL spectrum underwent a 25% Fourier transformation smoothening protocol using Origin 8.0 Software (Origin Labs) to enhance appearance (all calculations were carried out using raw spectral data).”

[3] = Relaxivity (r1, r2) measurement of Gd(III) complexes in water, BSA and human plasma; parameters: r1 Human Plasma (1.5 T): unit not given beside the values; settings: 1.5 T, 37° C.
Protocol: This is very important because the huge difference in the inner-sphere coordinated water exchange rate between the two isomers is a key factor for applications, for example, as MRI contrast agents. To show their potential value, the two diastereomers of [GdL2]^− ([GdL2A]^− and [GdL2B]^−) were separated and their relaxivities were measured. The relaxivities of [GdL1]^−, [GdL2]^−, [GdL2A]^−, [GdL2B]^− and [GdDOTA]^− in water at different magnetic strengths (1.5 T and 11.7 T) were compared, with or without the presence of BSA and human plasma (1.5 T) (Table 1). It is clearly seen that the complexes of [GdL1]^−, [GdL2A]^− and [GdL2B]^− have relaxivity properties similar to that of the [GdDOTA]^− complex.

Row | SMILES | r1 4.5 w/v BSA (1.5 T) [3] | r1 Human Plasma (1.5 T) [3] | r1 Water (1.5 T) [3] | R, I(5D0 → 7F2)/I(5D0 → 7F1) [1] | q (Parker's) [1] | q (Horrocks') [1] | ΦEuEu (%) [1] | τD2O/MeOD [1] | τH2O/MeOH [1] | ΦDMSO (%) [1] | ΦH2O/MeOH (%) [1] | ΦHEPES (%) [1] | λabs(max) [1] | ηsens (%) [1] | other results
1 | COc1cc(OC)c(C#Cc2cc(CN3CCN(C(C)C(=O)[O-])CCN(C(C)C(=O)[O-])CCN(C(C)C(=O)[O-])CC3)nc(P(C)(=O)[O-])c2)c(OC)c1.[Eu+3] (single isomer, unassigned) [Complex 12b] | – | – | – | – | – | – | – | – | – | – | – | – | – | – | R, I(5D0 → 7F2)/I(5D0 → 7F1) ([1]; listed as 12b): 2.41; q (Parker's) ([1]; listed as 12b): 0.11; q (Horrocks') ([1]; listed as 12b): 0.03; ΦEuEu (%) ([1]; listed as 12b): 24.9%; τD2O/MeOD ([1]; listed as 12b): 1.77 ms; τH2O/MeOH ([1]; listed as 12b): 1.04 ms; ΦDMSO (%) ([1]; listed as 12b): 44.1%; ΦH2O/MeOH (%) ([1]; listed as 12b): 10.2%; ΦHEPES (%) ([1]; listed as 12b): 9.8%; λabs(max) ([1]; listed as 12b): 355; ηsens (%) ([1]; listed as 12b): 41.0%; glum ΔJ = 1 (λ) DMSO ([2]; listed as 12b): −0.11 (591); glum ΔJ = 3 (λ) DMSO ([2]; listed as 12b): −0.10 (653); glum ΔJ = 1 (λ) H2O ([2]; listed as 12b): −0.04 (591); glum ΔJ = 3 (λ) H2O ([2]; listed as 12b): −0.11 (653)
2 | CC[C@H]1CN(CC(=O)[O-])[C@@H](CC)CN(CC(=O)[O-])[C@@H](CC)CN(CC(=O)[O-])[C@@H](CC)CN1CC(=O)[O-].[Gd+3] (single isomer, unassigned) [[GdL2A]^−] | 3.9 | 2.9 | 3.0 | – | – | – | – | – | – | – | – | – | – | – | –
3 | CC[C@H]1CN(CC(=O)[O-])[C@@H](CC)CN(CC(=O)[O-])[C@@H](CC)CN(CC(=O)[O-])[C@@H](CC)CN1CC(=O)[O-].[Gd+3] (single isomer, unassigned) [[GdL2B]^−] | 3.6 | 3.5 | 3.0 | – | – | – | – | – | – | – | – | – | – | – | –
4 | COc1cc(OC)c(C#Cc2cc(CN3CCN(CC(=O)[O-])CCN(CC(=O)[O-])CCN(CC(=O)[O-])CC3)nc(P(C)(=O)[O-])c2)c(OC)c1.[Eu+3] [Complex 7] | – | – | – | 2.52 | 0.06 | 0.01 | 23.6% | 1.44 ms | 1.01 ms | 47.0% | 7.6% | 6.9% | 353 | 32.3% | –
5 | CCC1CN(C(C)C(=O)[O-])C(CC)CN(C(C)C(=O)[O-])C(CC)CN(C(C)C(=O)[O-])C(CC)CN1Cc1cc(C#Cc2c(OC)cc(OC)cc2OC)cc(P(C)(=O)[O-])n1.[Eu+3] (centres unmarked) [Complex 13] | – | – | – | 2.66 | 0.00 | 0.06 | 30.2% | 1.83 ms | 1.25 ms | 49.7% | 21.9% | 20.9% | 356 | 72.6% | glum ΔJ = 1 (λ) DMSO [2]: −0.17 (588); glum ΔJ = 3 (λ) DMSO [2]: −0.29 (657); glum ΔJ = 3 (λ) H2O [2]: −0.33 (652); absolute glum 589 nm ([2]; aqueous solution): 0.23
6 | O=C([O-])CN1CCN(CC(=O)[O-])CCN(CC(=O)[O-])CCN(CC(=O)[O-])CC1.[Gd+3] [[GdDOTA]^−, reference compound] | 4.1 | 4.0 | 3.2 | – | – | – | – | – | – | – | – | – | – | – | –
7 | COc1cc(OC)c(C#Cc2cc(CN3CCN(C(C)C(=O)[O-])CCN(C(C)C(=O)[O-])CCN(C(C)C(=O)[O-])CC3)nc(P(C)(=O)[O-])c2)c(OC)c1.[Eu+3] (single isomer, unassigned) [Complex 12a] | – | – | – | – | – | – | – | – | – | – | – | – | – | – | R, I(5D0 → 7F2)/I(5D0 → 7F1) ([1]; listed as 12a): 2.74; q (Parker's) ([1]; listed as 12a): 0.07; q (Horrocks') ([1]; listed as 12a): 0.01; ΦEuEu (%) ([1]; listed as 12a): 26.6%; τD2O/MeOD ([1]; listed as 12a): 1.70 ms; τH2O/MeOH ([1]; listed as 12a): 1.12 ms; ΦDMSO (%) ([1]; listed as 12a): 46.4%; ΦH2O/MeOH (%) ([1]; listed as 12a): 12.7%; ΦHEPES (%) ([1]; listed as 12a): 12.4%; λabs(max) ([1]; listed as 12a): 352; ηsens (%) ([1]; listed as 12a): 47.0%; glum ΔJ = 1 (λ) DMSO ([2]; listed as 12a): −0.04 (591); glum ΔJ = 3 (λ) DMSO ([2]; listed as 12a): −0.04 (657); glum ΔJ = 1 (λ) H2O ([2]; listed as 12a): −0.03 (588); glum ΔJ = 3 (λ) H2O ([2]; listed as 12a): −0.05 (653)
8 | CC[C@H]1CN(CC(=O)[O-])[C@@H](CC)CN(Cc2cc(C#Cc3c(OC)cc(OC)cc3OC)cc(P(C)(=O)[O-])n2)[C@@H](CC)CN(CC(=O)[O-])[C@@H](CC)CN1CC(=O)[O-].[Eu+3] [Complex 8] | – | – | – | 2.43 | 0.10 | 0.02 | 26.0% | 1.76 ms | 1.12 ms | 50.0% | 14.0% | 14.0% | 356 | 53.8% | glum ΔJ = 1 (λ) DMSO [2]: −0.18 (591); glum ΔJ = 3 (λ) DMSO [2]: +0.17 (657); glum ΔJ = 1 (λ) H2O [2]: −0.11 (591); glum ΔJ = 3 (λ) H2O [2]: −0.28 (653)
